The NIST ThermoML archive (doi:10.1016/j.fluid.2009.06.015)
Numbers after ± are expanded uncertainties.

Assay: excess molar enthalpy (molar enthalpy of mixing); xn = mol fraction of the nth substance listed
Conditions: 101 kPa, Liquid, Flow calorimetry

Question: With `c1ccccc1` [benzene] + CCCCO as the compound, how does the excess molar enthalpy (298.15 K, x1 = 0.0504) read?
Answer: 0.0282 ± 0.00115 kcal/mol

Question: What about the excess molar enthalpy (298.15 K, x1 = 0.0997) of the same compound?
Answer: 0.0566 ± 0.00155 kcal/mol

Question: What about the excess molar enthalpy (298.15 K, x1 = 0.1497) of the same compound?
Answer: 0.0851 ± 0.00208 kcal/mol

Question: And the excess molar enthalpy (298.15 K, x1 = 0.1997)?
Answer: 0.113 ± 0.00263 kcal/mol

Question: And the excess molar enthalpy (298.15 K, x1 = 0.2505)?
Answer: 0.141 ± 0.00311 kcal/mol

Question: And the excess molar enthalpy (298.15 K, x1 = 0.3001)?
Answer: 0.167 ± 0.00359 kcal/mol

Question: And the excess molar enthalpy (298.15 K, x1 = 0.3506)?
Answer: 0.191 ± 0.00406 kcal/mol

Question: And the excess molar enthalpy (298.15 K, x1 = 0.3999)?
Answer: 0.212 ± 0.00454 kcal/mol

Question: And the excess molar enthalpy (298.15 K, x1 = 0.4502)?
Answer: 0.23 ± 0.00502 kcal/mol

Question: And the excess molar enthalpy (298.15 K, x1 = 0.5002)?
Answer: 0.246 ± 0.00526 kcal/mol

Question: What about the excess molar enthalpy (298.15 K, x1 = 0.5501) of the same compound?
Answer: 0.257 ± 0.0055 kcal/mol

Question: What about the excess molar enthalpy (298.15 K, x1 = 0.5998) of the same compound?
Answer: 0.265 ± 0.00574 kcal/mol

Question: What about the excess molar enthalpy (298.15 K, x1 = 0.6505) of the same compound?
Answer: 0.267 ± 0.00574 kcal/mol

Question: What about the excess molar enthalpy (298.15 K, x1 = 0.7) of the same compound?
Answer: 0.264 ± 0.00574 kcal/mol

Question: What about the excess molar enthalpy (298.15 K, x1 = 0.7503) of the same compound?
Answer: 0.256 ± 0.0055 kcal/mol

Question: And the excess molar enthalpy (298.15 K, x1 = 0.7996)?
Answer: 0.242 ± 0.00526 kcal/mol

Question: What about the excess molar enthalpy (298.15 K, x1 = 0.8497) of the same compound?
Answer: 0.22 ± 0.00478 kcal/mol

Question: And the excess molar enthalpy (298.15 K, x1 = 0.8996)?
Answer: 0.185 ± 0.0043 kcal/mol

Question: What about the excess molar enthalpy (298.15 K, x1 = 0.9504) of the same compound?
Answer: 0.129 ± 0.00335 kcal/mol

Question: And the excess molar enthalpy (313.15 K, x1 = 0.0494)?
Answer: 0.0354 ± 0.00143 kcal/mol

Question: What about the excess molar enthalpy (313.15 K, x1 = 0.1007) of the same compound?
Answer: 0.0726 ± 0.00198 kcal/mol

Question: What about the excess molar enthalpy (313.15 K, x1 = 0.1497) of the same compound?
Answer: 0.108 ± 0.00263 kcal/mol

Question: And the excess molar enthalpy (313.15 K, x1 = 0.2007)?
Answer: 0.143 ± 0.00335 kcal/mol

Question: What about the excess molar enthalpy (313.15 K, x1 = 0.2495) of the same compound?
Answer: 0.175 ± 0.00382 kcal/mol

Question: What about the excess molar enthalpy (313.15 K, x1 = 0.3002) of the same compound?
Answer: 0.206 ± 0.00454 kcal/mol

Question: And the excess molar enthalpy (313.15 K, x1 = 0.3507)?
Answer: 0.234 ± 0.00502 kcal/mol

Question: What about the excess molar enthalpy (313.15 K, x1 = 0.401) of the same compound?
Answer: 0.26 ± 0.00574 kcal/mol

Question: And the excess molar enthalpy (313.15 K, x1 = 0.4493)?
Answer: 0.28 ± 0.00598 kcal/mol

Question: And the excess molar enthalpy (313.15 K, x1 = 0.4993)?
Answer: 0.297 ± 0.00645 kcal/mol

Question: And the excess molar enthalpy (313.15 K, x1 = 0.5492)?
Answer: 0.31 ± 0.00669 kcal/mol

Question: And the excess molar enthalpy (313.15 K, x1 = 0.601)?
Answer: 0.317 ± 0.00669 kcal/mol

Question: What about the excess molar enthalpy (313.15 K, x1 = 0.6506) of the same compound?
Answer: 0.32 ± 0.00693 kcal/mol

Question: And the excess molar enthalpy (313.15 K, x1 = 0.7001)?
Answer: 0.316 ± 0.00669 kcal/mol

Question: What about the excess molar enthalpy (313.15 K, x1 = 0.7495) of the same compound?
Answer: 0.306 ± 0.00669 kcal/mol

Question: And the excess molar enthalpy (313.15 K, x1 = 0.8007)?
Answer: 0.287 ± 0.00621 kcal/mol

Question: What about the excess molar enthalpy (313.15 K, x1 = 0.8498) of the same compound?
Answer: 0.259 ± 0.00574 kcal/mol

Question: What about the excess molar enthalpy (313.15 K, x1 = 0.9007) of the same compound?
Answer: 0.215 ± 0.00502 kcal/mol

Question: What about the excess molar enthalpy (313.15 K, x1 = 0.9495) of the same compound?
Answer: 0.145 ± 0.00382 kcal/mol
